# According to ChEMBL document CHEMBL5154805, “From tryptophan-based amides to tertiary amines: Optimization of a butyrylcholinesterase inhibitor series” (Eur J Med Chem, 2022):
# How the values were obtained:
# [1] = target: T1, Cholinesterase (Homo sapiens, UniProt P06276)
# Description: Inhibition of recombinant human BChE using butyrylthiocholine iodide as substrate preincubated for 1 to 30 mins followed by substrate addition by Ellman's method
# [2] = target: T2, Acetylcholinesterase (Homo sapiens, UniProt P22303); experiment: Inhibition of recombinant human AChE assessed as residual activity at 100 uM using acetylthiocholine iodide as substrate preincubated for 1 to 30 mins followed by substrate addition by Ellman's method relative to control; settings: time 1-30 min
# T2 sequence (P22303 whole entry): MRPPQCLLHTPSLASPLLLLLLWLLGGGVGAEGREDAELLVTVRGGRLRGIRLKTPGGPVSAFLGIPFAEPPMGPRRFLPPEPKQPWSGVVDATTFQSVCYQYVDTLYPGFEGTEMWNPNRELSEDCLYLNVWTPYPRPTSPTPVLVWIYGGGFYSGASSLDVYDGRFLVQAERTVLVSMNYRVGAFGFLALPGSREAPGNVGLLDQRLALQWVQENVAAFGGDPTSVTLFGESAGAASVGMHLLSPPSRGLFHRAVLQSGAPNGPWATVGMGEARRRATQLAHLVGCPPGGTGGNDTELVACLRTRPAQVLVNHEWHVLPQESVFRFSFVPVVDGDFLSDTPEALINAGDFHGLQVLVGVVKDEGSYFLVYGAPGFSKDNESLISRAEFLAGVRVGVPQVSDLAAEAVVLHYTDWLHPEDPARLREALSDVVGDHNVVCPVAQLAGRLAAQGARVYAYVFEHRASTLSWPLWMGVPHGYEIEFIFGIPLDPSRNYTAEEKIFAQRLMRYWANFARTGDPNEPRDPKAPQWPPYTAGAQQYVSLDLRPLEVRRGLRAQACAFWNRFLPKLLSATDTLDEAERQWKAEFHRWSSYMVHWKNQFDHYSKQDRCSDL
# [3] = target: T2, Acetylcholinesterase; experiment: Inhibition of recombinant human AChE assessed as residual activity at 3 uM using acetylthiocholine iodide as substrate preincubated for 1 to 30 mins followed by substrate addition by Ellman's method relative to control; settings: time 1-30 min
# [4] = target: T2, Acetylcholinesterase; experiment: Inhibition of recombinant human AChE using acetylthiocholine iodide as substrate preincubated for 1 to 30 mins followed by substrate addition by Ellman's method
# [5] = target: T3, Acetylcholinesterase (Mus musculus, UniProt P21836); experiment: Inhibition of mouse recombinant AChE assessed as reduction in cholinesterase activity using acetylthiocholine iodide as substrate preincubated for 1 to 30 mins followed by substrate addition by Ellman's method
# T3 sequence (P21836 whole entry): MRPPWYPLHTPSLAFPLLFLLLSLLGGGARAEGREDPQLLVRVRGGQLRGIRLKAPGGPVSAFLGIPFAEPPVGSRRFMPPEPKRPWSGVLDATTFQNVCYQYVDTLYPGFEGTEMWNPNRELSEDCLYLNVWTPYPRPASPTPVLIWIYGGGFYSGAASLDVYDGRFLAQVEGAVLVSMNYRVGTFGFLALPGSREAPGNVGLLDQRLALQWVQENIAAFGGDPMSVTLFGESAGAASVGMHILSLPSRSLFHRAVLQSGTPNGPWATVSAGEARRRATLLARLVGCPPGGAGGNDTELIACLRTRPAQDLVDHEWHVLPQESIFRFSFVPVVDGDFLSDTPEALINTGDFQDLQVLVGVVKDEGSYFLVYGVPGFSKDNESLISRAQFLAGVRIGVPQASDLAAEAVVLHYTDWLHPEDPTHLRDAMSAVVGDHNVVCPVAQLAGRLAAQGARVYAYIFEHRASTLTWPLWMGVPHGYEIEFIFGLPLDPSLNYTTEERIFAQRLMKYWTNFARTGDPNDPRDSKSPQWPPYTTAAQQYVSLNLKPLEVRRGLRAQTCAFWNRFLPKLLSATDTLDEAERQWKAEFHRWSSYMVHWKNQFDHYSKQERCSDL
# [6] = target: Cholinesterases; ACHE & BCHE (Homo sapiens) (UniProt P06276+P22303); experiment: Selectivity ratio of IC50 for recombinant human AChE to IC50 for recombinant human BChE; format: protein assay
# Chain of Cholinesterases; ACHE & BCHE (Homo sapiens) (P06276 whole entry, looked up): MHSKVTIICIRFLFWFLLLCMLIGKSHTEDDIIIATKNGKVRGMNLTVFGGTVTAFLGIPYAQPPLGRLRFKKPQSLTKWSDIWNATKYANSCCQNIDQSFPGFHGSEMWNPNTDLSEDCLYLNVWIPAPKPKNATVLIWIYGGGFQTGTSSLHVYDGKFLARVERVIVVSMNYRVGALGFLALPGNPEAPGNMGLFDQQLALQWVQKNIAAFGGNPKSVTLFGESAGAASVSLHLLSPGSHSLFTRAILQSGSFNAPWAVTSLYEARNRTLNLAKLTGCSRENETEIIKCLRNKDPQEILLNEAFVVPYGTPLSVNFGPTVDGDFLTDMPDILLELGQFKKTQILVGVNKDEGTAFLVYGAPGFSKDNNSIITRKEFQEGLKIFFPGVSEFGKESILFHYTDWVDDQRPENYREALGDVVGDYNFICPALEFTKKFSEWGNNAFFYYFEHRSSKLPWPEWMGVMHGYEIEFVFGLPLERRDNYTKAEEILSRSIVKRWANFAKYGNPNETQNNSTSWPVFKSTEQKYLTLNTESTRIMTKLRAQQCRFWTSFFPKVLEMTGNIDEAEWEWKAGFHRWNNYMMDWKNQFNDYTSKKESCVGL
# Chain of Cholinesterases; ACHE & BCHE (Homo sapiens) (P22303 whole entry, looked up): as the sequence (P22303 whole entry) above
# [7] = target: T1, Cholinesterase; remark: listed apart in the source
# Description: Binding affinity to human recombinant BChE assessed as decarbamoylation rate by measuring half life
# T1 sequence (P06276 whole entry): as the sequence (P06276 whole entry, looked up) above
Compound,IC50 [1] [µM],Activity [3] [%],further results
CCCCN(CCCc1cc2ccccc2[nH]1)CCC1CCCCCC1,0.0047,> 50,Activity [2]: 74%
CN(CCC1CCCCCC1)Cc1c[nH]c2ccccc12,0.0604,> 50,IC50 [4]: 25.2 µM
CCCCN(CCCc1c[nH]c2ccccc12)CCC1CCCCCC1,0.0024,> 50,–
CCCCN(CCC1CCCCCC1)Cc1cc(OC(=O)N(C)C)c2ccccc2c1,0.0024,> 50,–
CN1CCN(CCC2CCCCCC2)C[C@@H]1Cc1c[nH]c2ccccc12,0.0105,> 50,Activity [2]: 39%
CN(C)C1CCC(CCN(CCCc2c[nH]c3ccccc23)CCC2CCCCCC2)CC1 (stereo in doubt; 32a) [listing 1 of 2 here],–,> 50,–
CN(C)C1CCC(CCN(CCCc2c[nH]c3ccccc23)CCC2CCCCCC2)CC1 (stereo in doubt; 32b) [listing 1 of 2 here],0.0041,–,IC50 [4]: 8.57 µM
CN(CCC1CCN(Cc2ccccc2)CC1)Cc1c[nH]c2ccccc12,1.71,> 50,IC50 [4]: 33.9 µM
CCCCN(CCC1CCCCCC1)Cc1c[nH]c2cc(C#N)ccc12,0.0837,> 50,–
CN(CCC1CCCCCC1)Cc1c(-c2nnn[nH]2)[nH]c2ccccc12,0.929,> 50,–
CCCCN(CCc1c[nH]c2ccc(OC(=O)N(C)C)cc12)CCC1CCCCCC1,0.0069,> 50,–
CCCCN(CCC1CCCCCC1)CCC1CCc2ccccc21 (centres undefined),0.0065,> 50,–
CCCCN(CCCc1ccc2ccccc2c1)CCC1CCCCCC1,0.0051,> 50,Activity [2]: 56%
CCCCN(CCc1c[nH]c2ccc(O)cc12)CCC1CCCCCC1,0.0335,> 50,Activity [2]: 79%
CCCCN(CCCc1cccc2ccccc12)CCC1CCCCCC1,0.0019,> 50,–
c1ccc2c(CCNCCC3CCCCCC3)c[nH]c2c1,0.0315,> 50,–
CCCCN(CCC1CCCCCC1)Cc1c[nH]c2ccccc12,0.0133,> 50,–
CCCCN(CCCc1c[nH]c2ccccc12)CCC1CCC(N(C)C)CC1 (stereo in doubt; 33a) [listing 1 of 2 here],0.205,–,–
CN(CCc1c[nH]c2ccccc12)CCC1CCCCCC1,–,> 50,–
CCCCN(CCC1CCCCCC1)Cc1cc(O)c2ccccc2c1,0.0047,> 50,–
CN(C)C1CCC(CCN(CCCc2c[nH]c3ccccc23)CCC2CCCCCC2)CC1 (stereo in doubt; 32a) [listing 2 of 2 here],0.0019,–,IC50 [4]: 12.6 µM
c1ccc2c(CCCN(CCC3CCCCCC3)CCC3CCCCC3)c[nH]c2c1,0.0049,> 50,–
CCCCN(CCCc1c[nH]c2ccccc12)CCC1CCC(N(C)C)CC1 (stereo in doubt; 33b) [listing 1 of 2 here],0.214,–,–
CCCC[N+](C)(CCCc1c[nH]c2ccccc12)CCC1CCCCCC1 (centres undefined),0.0023,> 50,IC50 [4]: 23.2 µM
CCCCN(CCc1cn(C(=O)N(C)C)c2ccccc12)CCC1CCCCCC1,0.00087,> 50,–
c1ccc2c(c1)CCC2CCN(CCCc1c[nH]c2ccccc12)CCC1CCCCCC1 (centres undefined),0.0063,> 50,–
CCCCN(CCc1c[nH]c2cc(O)ccc12)CCC1CCCCCC1,–,> 50,IC50 [4]: 70.6 µM

Compound,IC50 [1] [µM],Activity [3] [%],further results
CCCCN(CCOc1cccc2c(OC(=O)N(C)C)cccc12)CCC1CCCCCC1,0.0058,> 50,IC50 [4]: 0.0479 µM
CCCCN1CCN(CCCC2CCCCCC2)C[C@@H]1Cc1c[nH]c2ccccc12,0.005,> 50,IC50 [5]: 10.3 µM; Ratio IC50 [6]: > 1000
CCCCN(C)[C@@H](Cc1c[nH]c2ccccc12)CN(C)CCC1CCCCCC1,0.003,> 50,IC50 [5]: 23.4 µM
CN(C)c1ccc(/C=C/CN(CCCc2c[nH]c3ccccc23)CCC2CCCCCC2)cc1,0.0046,> 50,Activity [2]: 54%
CN(CCC1CCCCCC1)Cc1cccc2[nH]ccc12,0.349,> 50,–
CCCCN(CCC1CCCCCC1)Cc1ccc(OC(=O)N(C)C)c2ccccc12,0.0019,> 50,IC50 [4]: 0.101 µM
CCCCN1CN(CCC2CCCCCC2)C[C@@H]1Cc1c[nH]c2ccccc12,0.0087,> 50,IC50 [5]: 11 µM; Ratio IC50 [6]: > 1000
CCCCN(CCCc1c[nH]c2ccc(F)cc12)CCC1CCCCCC1,0.006,> 50,–
CCCCN(CCCc1c[nH]c2ccccc12)CCC1CCC(N(C)C)CC1 (stereo in doubt; 33a) [listing 2 of 2 here],–,> 50,–
CN(C)C1CCC(CCN(CCCc2c[nH]c3ccccc23)CCC2CCCCCC2)CC1 (stereo in doubt; 32b) [listing 2 of 2 here],–,> 50,–
CCCCN(CCC1CCCCCC1)Cc1c[nH]c2ncccc12,0.083,> 50,Activity [2]: 57%
CCCCN(CCC1CCCCCC1)Cc1cn(OC(=O)N(C)C)c2ccccc12,0.133,> 50,IC50 [4]: 0.152 µM
CCCCN[C@H](CNCCC1CCCCCC1)Cc1c[nH]c2ccccc12,0.0101,> 50,IC50 [5]: 12.4 µM
CCCCN(CCc1c[nH]c2ccccc12)CCC1CCCCCC1,0.005,> 50,–
CCCCN(CCCc1c[nH]c2ccccc12)CCC1CCN(Cc2ccccc2)CC1,0.0293,> 50,IC50 [4]: 7.84 µM
CCCCN(CCC1CCCCCC1)Cc1cc2ccccc2cc1OC(=O)N(C)C,0.0022,> 50,–
CCCCN(CCOc1ccc2ccc(OC(=O)N(C)C)cc2c1)CCC1CCCCCC1,0.0117,> 50,–
CCCCN(CCc1c[nH]c2c(OC(=O)C(C)C)cccc12)CCC1CCCCCC1,–,> 50,IC50 [4]: 1.37 µM; T1/2 [7]: 15.2 h
CCCCN(CCc1c(-c2ccccc2O)[nH]c2ccccc12)CCC1CCCCCC1,0.0168,> 50,–
CCCCN(CCC1CCCCCC1)Cc1cc2ccccc2cc1O,0.0337,> 50,IC50 [4]: 18.6 µM
CCCCN(CCc1c[nH]c2cc(OC(=O)N(C)C)ccc12)CCC1CCCCCC1,–,> 50,T1/2 [7]: 14.8 h
CCCCN(CCCc1c[nH]c2ccccc12)CCC1CCC(N(C)C)CC1 (stereo in doubt; 33b) [listing 2 of 2 here],–,> 50,–
CCCCN(CCc1c(-c2ccccc2OC(=O)N(C)C)[nH]c2ccccc12)CCC1CCCCCC1,0.0054,> 50,–
CCCCN(CCc1c[nH]c2c(O)cccc12)CCC1CCCCCC1,–,> 50,Activity [2]: 69%
CCCC[N+]([O-])(CCc1c[nH]c2ccccc12)CCC1CCCCCC1 (centres undefined),0.107,> 50,Activity [2]: 86%
CCCCN(CCC1CCCCCC1)Cc1c[nH]c2cc(Br)ccc12,0.0036,> 50,–
CCCCN(CCCC1CCNc2ccccc21)CCC1CCCCCC1 (centres undefined),0.0548,> 50,Activity [2]: 65%
